In patent publication US9193736B2, “PDE 10a inhibitors for the treatment of type II diabetes” (Janssen Pharmaceutica, NV, priority 2013, dated 2015):
pIC50: −log10 of the molar value. Counter-ions that a name gives are not always drawn.

Assays:
[1] = biological target: Rat recombinant PDE10a (rPDE10a) (Rattus norvegicus (Rat), UniProt Q9QYJ6); experiment: In vitro assay PDE10a: rat recombinant PDE10a SPA with 3H-cAMP substrate, IC50; format: biochemical; conditions: 60 nM cAMP, read-out: rPDE10a2 IC50
Rat recombinant PDE10a (rPDE10a), sequence (Q9QYJ6 whole entry): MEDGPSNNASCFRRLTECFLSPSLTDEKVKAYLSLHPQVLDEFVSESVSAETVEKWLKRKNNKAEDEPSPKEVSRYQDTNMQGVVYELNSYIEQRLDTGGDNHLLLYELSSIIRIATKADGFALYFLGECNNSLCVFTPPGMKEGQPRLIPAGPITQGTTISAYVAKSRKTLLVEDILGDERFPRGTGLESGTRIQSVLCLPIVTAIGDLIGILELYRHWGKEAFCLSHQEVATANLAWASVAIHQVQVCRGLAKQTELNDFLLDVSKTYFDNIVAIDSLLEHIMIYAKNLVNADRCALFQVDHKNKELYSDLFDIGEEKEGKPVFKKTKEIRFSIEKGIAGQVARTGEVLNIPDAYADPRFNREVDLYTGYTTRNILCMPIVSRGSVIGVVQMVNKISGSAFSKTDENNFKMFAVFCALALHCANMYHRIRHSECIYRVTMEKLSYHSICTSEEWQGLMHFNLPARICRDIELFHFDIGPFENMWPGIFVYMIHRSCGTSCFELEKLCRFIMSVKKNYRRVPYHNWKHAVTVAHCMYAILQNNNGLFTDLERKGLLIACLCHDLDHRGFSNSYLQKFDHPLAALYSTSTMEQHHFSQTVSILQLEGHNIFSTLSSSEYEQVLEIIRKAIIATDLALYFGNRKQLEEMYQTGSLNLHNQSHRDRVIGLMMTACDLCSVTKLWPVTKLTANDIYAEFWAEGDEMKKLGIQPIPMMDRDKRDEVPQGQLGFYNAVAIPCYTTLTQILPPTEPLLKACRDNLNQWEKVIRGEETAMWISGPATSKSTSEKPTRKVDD
Protocol: In Vitro Assay PDE10a Rat recombinant PDE10a (rPDE10a) was expressed in Sf9 cells using a recombinant rPDE10a baculovirus construct. Cells were harvested after 48 h of infection and the rPDE10a protein was purified by metal chelate chromatography on Ni-sepharose 6FF. Tested compounds were dissolved and diluted in 100% DMSO to a concentration 100 fold of the final concentration in the assay. […] The reaction was incubated for 60 min at rt. After incubation, the reaction was stopped with 20 μL of 17.8 mg/mL PDE SPA beads. […] For blank values the enzyme was omitted from the reaction and replaced by incubation buffer.

[2] = biological target: Human recombinant PDE10A2 (Homo sapiens (Human), UniProt Q9Y233); experiment: In vitro hPDE10a: human recombinant PDE10A2 scintillation proximity assay, IC50; format: biochemical; conditions: human recombinant PDE10A2, SPA, 60 nM cAMP; read-out: hPDE10a2 IC50
Human recombinant PDE10A2, sequence (Q9Y233 267-1055): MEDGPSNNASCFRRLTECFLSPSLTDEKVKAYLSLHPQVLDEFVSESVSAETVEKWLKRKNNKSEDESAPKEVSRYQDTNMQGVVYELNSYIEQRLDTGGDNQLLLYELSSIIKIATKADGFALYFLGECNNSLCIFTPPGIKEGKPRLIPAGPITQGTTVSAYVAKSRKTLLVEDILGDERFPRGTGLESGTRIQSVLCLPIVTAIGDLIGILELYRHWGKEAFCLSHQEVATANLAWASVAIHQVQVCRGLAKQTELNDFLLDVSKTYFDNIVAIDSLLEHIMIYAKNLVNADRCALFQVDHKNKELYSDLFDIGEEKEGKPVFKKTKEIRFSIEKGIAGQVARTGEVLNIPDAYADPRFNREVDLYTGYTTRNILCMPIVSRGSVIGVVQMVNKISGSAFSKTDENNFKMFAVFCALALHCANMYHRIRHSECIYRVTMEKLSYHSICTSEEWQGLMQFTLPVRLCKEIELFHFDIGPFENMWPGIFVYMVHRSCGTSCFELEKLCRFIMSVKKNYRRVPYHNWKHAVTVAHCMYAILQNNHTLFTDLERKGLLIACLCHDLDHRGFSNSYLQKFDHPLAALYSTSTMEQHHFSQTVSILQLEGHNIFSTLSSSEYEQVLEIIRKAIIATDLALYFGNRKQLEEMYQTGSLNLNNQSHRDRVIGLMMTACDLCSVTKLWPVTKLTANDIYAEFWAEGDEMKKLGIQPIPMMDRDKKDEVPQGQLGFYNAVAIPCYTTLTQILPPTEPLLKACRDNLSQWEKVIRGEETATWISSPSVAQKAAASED
Protocol: Cells were harvested and the phosphodiesterase protein was purified by metal chelate chromatography on Ni-sepharose 6FF. The affinity of the compounds of Formula (I) for phophodiesterases (PDE) was measured by a scintillation proximity assay (SPA). PDE Yttrium Silicate SPA beads allow PDE activity to be measured by direct binding of the primary phosphate groups of non-cyclic AMP or GMP to the beads via a complex iron chelation mechanism. The amount of bound tritiated product ([^3H]-AMP) is measured by liquid scintillation counting. The compounds were dissolved and diluted in 100% DMSO in polystyrene plates to a concentration of 100-fold the final concentration in the assay. […] After incubation, the reaction was stopped with 20 μL of stop solution, consisting of PDE SPA beads (17.8 mg beads/mL in 18 mM zinc sulphate). […] To measure the low control, no enzyme was added to the reaction mixture. Data were calculated as the percentage of inhibition of total activity measured in the absence of test compound (% control). […] For compounds tested more than once, the data points were aggregated.

Row | pIC50 [1] | pIC50 [2] | Structure (SMILES)
1 | 7.77 | 7.37 | CN1CC=C(c2ccc(-c3c(COc4ccc5ccccc5n4)nc4c(N5CCOCC5)ccnn34)cn2)CC1 [Cpd 10, 4-(3-(1′-methyl-1′,2′,3′,6′-tetrahydro-[2,4′-bipyridin]-5-yl)-2-((quinolin-2-yloxy)methyl)imidazo[1,2-b]pyridazin-8-yl)morpholine]
2 | 8.15 | 8.40 | O=c1ncn(-c2ccc(-c3c(/C=C/c4ccc5ccccc5n4)nc4c(N5CCOCC5)ccnn34)cn2)[nH]1 [Cpd 56, (E)-1-(5-(8-Morpholino-2-(2-(quinolin-2-yl)vinyl)imidazo[1,2-b]pyridazin-3-yl)pyridin-2-yl)-1,2-dihydro-1,2,4-triazol-3-one trifluoroacetic acid salt]
3 | 7.77 | ~7.74 | O=C(O)c1ccc(-c2c(C#Cc3cccc(C(F)(F)F)n3)nc3c(N4CCOCC4)ccnn23)cc1 [Cpd 111, 4-(8-Morpholino-2-((6-(trifluoromethyl)pyridin-2-yl)ethynyl)imidazo[1,2-b]pyridazin-3-yl)benzoic acid]
4 | > 9.00 | > 9.00 | O=C(O)c1ccc(-c2c(C#Cc3ccc4ccccc4n3)nc3c(N4CCOCC4)ccnn23)cc1 [Cpd 77, 4-(8-Morpholino-2-(quinolin-2-ylethynyl)imidazo[1,2-b]pyridazin-3-yl)benzoic acid]
5 | 8.30 | 8.40 | O=C(O)c1ccc(-c2c(/C=C/c3ccc4ccccc4n3)nc3c(N4CCOCC4)ccnn23)cn1 [compound 92, (E)-5-(8-Morpholino-2-(2-(quinolin-2-yl)vinyl)imidazo[1,2-b]pyridazin-3-yl)picolinic acid]
6 | 7.92 | 8.00 | CC(C)[C@H](Nc1ccc(-c2c(/C=C/c3ccc4ccccc4n3)nc3c(N4CCOCC4)ccnn23)cc1)C(=O)O [Cpd 99, (S,E)-3-Methyl-2-(4-(8-morpholino-2-(2-(quinolin-2-yl)vinyl)imidazo[1,2-b]pyridazin-3-yl)phenylamino)butanoic acid trifluoroacetic acid salt]
7 | 6.70 | 6.81 | c1ccc2nc(NCc3nc4c(N5CCOCC5)ccnn4c3-c3ccc(N4CCNCC4)nc3)ccc2c1 [Cpd 4, N-((8-Morpholino-3-(6-(piperazin-1-yl)pyridin-3-yl)imidazo[1,2-b]pyridazin-2-yl)methyl)quinolin-2-amine trifluoroacetic acid salt]
8 | > 9.00 | 9.00 | c1ccc2nc(CCc3nc4c(N5CCOCC5)ccnn4c3-c3ccc(-c4nnn[nH]4)nc3)ccc2c1 [Cpd 31, 4-(3-(6-(1H-Tetrazol-5-yl)pyridin-3-yl)-2-(2-(quinolin-2-yl)ethyl)imidazo[1,2-b]pyridazin-8-yl)morpholine trifluoroacetic acid salt]
9 | 8.70 | 8.70 | COc1ccc(C#Cc2nc3c(N4CCOCC4)ccnn3c2-c2ccc(C(=O)O)cc2)nc1 [Cpd 110, 4-(2-((5-Methoxypyridin-2-yl)ethynyl)-8-morpholinoimidazo[1,2-b]pyridazin-3-yl)benzoic acid]
10 | 6.35 | 6.16 | CCN(CC)c1ccc(-c2c(COc3ccc4ccccc4n3)nc3c(N4CCOCC4)ccnn23)cn1 [Cpd 7, N,N-diethyl-5-(8-morpholino-2-((quinolin-2-yloxy)methyl)imidazo[1,2-b]pyridazin-3-yl)pyridin-2-amine methane sulfonic acid]
11 | 8.10 | 8.22 | O=C(O)[C@@H]1CCCN1C(=O)c1ccc(-c2c(CCc3ccc4ccccc4n3)nc3c(N4CCOCC4)ccnn23)cc1 [Cpd 72, (S)-1-(4-(8-Morpholino-2-(2-(quinolin-2-yl)ethyl)imidazo[1,2-b]pyridazin-3-yl)benzoyl)pyrrolidine-2-carboxylic acid trifluoroacetic acid salt]
12 | 8.52 | 8.10 | CS(=O)(=O)NC(=O)Nc1ccc(-c2c(/C=C/c3ccc4ccccc4n3)nc3c(N4CCOCC4)ccnn23)cc1 [compound 50, (E)-N-((4-(8-Morpholino-2-(2-(quinolin-2-yl)vinyl)imidazo[1,2-b]pyridazin-3-yl)phenyl)carbamoyl)methanesulfonamide]
13 | > 9.00 | > 9.00 | O=C(O)c1ccc(-c2c(CCc3ccc4ccccc4n3)nc3c(N4CCOCC4)ccnn23)o1 [compound 60, 5-(8-Morpholino-2-(2-(quinolin-2-yl)ethyl)imidazo[1,2-b]pyridazin-3-yl)furan-2-carboxylic acid]
14 | 9.00 | 9.00 | O=C(O)c1ccc(-c2c(/C=C/c3ccc4ccccc4n3)nc3c(N4CCOCC4)ccnn23)s1 [Cpd 57, (E)-5-(8-Morpholino-2-(2-(quinolin-2-yl)vinyl)imidazo[1,2-b]pyridazin-3-yl)thiophene-2-carboxylic acid]
15 | 8.40 | 8.15 | O=C(O)c1ccc(-c2c([C@@H]3C[C@@H]3c3ccc4ccccc4n3)nc3c(N4CCOCC4)cc(Cl)nn23)cc1 [Cpd 147, 4-(6-Chloro-8-morpholino-2-((1R,2S)-2-(quinolin-2-yl)cyclopropyl)imidazo[1,2-b]pyridazin-3-yl)benzoic acid trifluoroacetic acid salt]
16 | 8.70 | > 9.00 | O=C(O)CCNC(=O)c1ccc(-c2c(C#Cc3ccc4ccccc4n3)nc3c(N4CCOCC4)ccnn23)cc1 [compound 82, 3-(4-(8-Morpholino-2-(quinolin-2-ylethynyl)imidazo[1,2-b]pyridazin-3-yl)benzamido)propanoic acid]
17 | > 9.00 | > 9.00 | O=C(O)c1ccc(-c2c(C#Cc3ccc4ccccc4n3)nc3c(N4CCOCC4)ccnn23)s1 [Cpd 85, 5-(8-Morpholino-2-(quinolin-2-ylethynyl)imidazo[1,2-b]pyridazin-3-yl)thiophene-2-carboxylic acid]
18 | 8.52 | 8.22 | Nc1ccc(-c2c(/C=C/c3ccc4ccccc4n3)nc3c(N4CCOCC4)ccnn23)cn1 [Cpd 18, (E)-5-(8-Morpholino-2-(2-(quinolin-2-yl)vinyl)imidazo[1,2-b]pyridazin-3-yl)pyridin-2-amine]
19 | 9.00 | 9.00 | O=C(O)c1cccc2nc(/C=C/c3cn4nccc(N5CCOCC5)c4n3)ccc12 [Cpd 115, 2-[(E)-2-(8-Morpholin-4-ylimidazo[1,2-b]pyridazin-2-yl)ethenyl]quinoline-5-carboxylic acid]
20 | 8.70 | 8.52 | O=c1[nH]c(-c2ccc(-c3c(/C=C/c4ccc5ccccc5n4)nc4c(N5CCOCC5)ccnn34)cn2)no1 [Cpd 34, (E)-3-(5-(8-Morpholino-2-(2-(quinolin-2-yl)vinyl)imidazo[1,2-b]pyridazin-3-yl)pyridin-2-yl)-1,2,4-oxadiazol-5(4H)-one]
21 | 8.70 | 8.52 | CS(=O)(=O)NC(=O)c1ccc(-c2c(CSc3ccc4ccccc4n3)nc3c(N4CCOCC4)ccnn23)cc1 [Cpd 120, N-(Methylsulfonyl)-4-(8-morpholino-2-((quinolin-2-ylthio)methyl)imidazo[1,2-b]pyridazin-3-yl)benzamide]

Row | Structure (SMILES) | pIC50 [1] | pIC50 [2]
22 | Cc1ccc(-c2c(COc3ccc4ccccc4n3)nc3c(N4CCOCC4)ccnn23)cn1 [Cpd 1, 4-(3-(6-methylpyridin-3-yl)-2-((quinolin-2-yloxy)methyl)imidazo[1,2-b]pyridazin-8-yl)morpholine methane sulfonic acid] | 7.34 | 6.94
